The values that follow are results of earlier work, collected in patent US20060229344A1, “Method of treating amyotrophic lateral sclerosis” (priority 2005, published 2006).

For series [1] the following is noted: in vivo.
For series [2] the following is noted: in vivo. The source holds these as a separate data set.

Turning to `Cc1cc(CCCOc2c(C)cc(-c3noc(C(F)(F)F)n3)cc2C)on1` [VP 63843, 3-[3,5-dimethyl-4-[[3-(3-methyl-5-isoxazolyl)propyl]oxy]phenyl]-5-(trifluoromethyl)-1,2,4-oxadiazole], the “absorption after oral administration” value is reported as “well absorbed”. In addition, in series [1], the side-effects entry is “few side-effects”, the tolerability entry is given as “well tolerated” and the toxicity entry is recorded as “little toxicity”. The “crossing into the central nervous system and gray matter” value in series [2] is “crosses readily into the central nervous system and into gray matter”.
